Assay results reported in patent US20180045715A1, “STRUCTURE AND FUNCTION OF THE SALICYCLIC ACID BINDING SITES ON HUMAN HMGB1 AND METHODS OF USE THEREOF FOR THE RATIONAL DESIGN OF BOTH SALICYCLIC ACID DERIVATIVES AND OTHER AGENTS THAT ALTER ANIMAL AND PLANT HMGBS ACTIVITIES” (Boyce Thompson Institute for Plant Research, Inc., priority 2015, published 2018).
Changes are numbered by the printed parent chain.

Experiments:
HMGB1-CXCL12 Complex = molecular target: T1, HMGB1-CXCL12 Complex (Homo sapiens, UniProt P09429, DEL90-93); assay: WaterLOGSY NMR with HMGB1/CXCL12 complex; assay type: binding; conditions: 6 mM SA or 5 mM ac3AESA, 20 μM complex
T1 construct: (i) full length: residues 2-215; full-length disulfide-intact CXCL12; hexaHis (TEV-cleavable) (N, cleaved yes)
T1 sequence (P09429 2-215 limits assumed): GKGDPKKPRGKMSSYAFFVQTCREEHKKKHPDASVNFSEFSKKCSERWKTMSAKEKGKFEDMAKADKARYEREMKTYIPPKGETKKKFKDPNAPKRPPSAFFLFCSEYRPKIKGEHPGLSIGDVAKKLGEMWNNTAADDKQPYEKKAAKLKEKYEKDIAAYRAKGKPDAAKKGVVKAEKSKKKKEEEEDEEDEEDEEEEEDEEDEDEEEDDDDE
Excerpt: (§1) NMR can be used to detect protein ligand interactions either by protein-detected experiments (Lepre, Moore et al. 2004), detecting changes in the frequencies of resonances of the protein sample due to ligand binding (protein-detected chemical shift perturbation (CSP) experiments), or by ligand-detected experiments (Lepre, Moore et al. 2004), in which NMR properties of the ligands due to ligand-protein interactions are detected. Protein-detected ligand binding experiments are usually done using isotope-enriched protein samples which can be studied by isotope-filtered NMR experiments, including for example ^15N-^1H-HSQC (Kay, Keifer et al. 1992). Ligand-detected experiments include the Waterlogsy experiment (Meyer and Peters 2003, Lepre, Moore et al. 2004, Furihata, Shimotakahara et al. 2008), which detects interactions in the ternary complex formed by the protein, the ligand, and one or more water molecules, and the Saturation Transfer Difference (STD) NMR experiments (Mayer and Meyer 2001, Lepre, Moore et al. 2004, Wang, Liu et al. 2004), which detects magnetization transfer from the protein to the ligand in the protein-ligand complex. The Waterlogsy experiment is a more sensitive experiment, typically employed to detect qualitatively if there is an interaction between protein and ligand. […]

CXCL12 = molecular target: T2, CXCL12 (Homo sapiens, UniProt P48061); assay: WaterLOGSY NMR with CXCL12; assay type: binding; conditions: 6 mM SA or 5 mM ac3AESA, 20 μM protein
T2 construct: full-length disulfide-intact CXCL12
Excerpt: as §1

[1] = system: fMLP-induced migration of NIH/3T3 fibroblast cells; assay: Chemotaxis assay: fMLP-induced fibroblast migration (specificity control); assay type: cell-based, mouse; conditions: 0.1 nM fMLP
Method: (§2) Cell migration was assayed using Boyden chambers (Venereau et al., 2012). The downside of PVP-free polycarbonate filters (8 μm pores; Millipore) was coated with 50 μg/ml fibronectin (Sigma). Serum-free DMEM (negative control), DMEM containing 0.1 nM fMLP (positive control; Sigma), or DMEM containing 1 nM HMGB1^RE or HMGB1^SS were placed in the lower chamber, together with different concentrations of SA (Sigma). The mouse 3T3 fibroblast cells were cultured in DMEM media supplemented with 10% CS until 90% confluence, washed twice with PBS to eliminate any floating cells, and harvested with trypsin. 50,000 cells in 200 μL were added to the upper chamber, and cells were left to migrate for 3 h at 37° C. Non-migrating cells were removed with a cotton swab, and migrated cells were fixed with ethanol and stained with Giemsa.
HMGB1^RE acts as a chemo-attractant that mediates migration of several cell types, including monocytes, fibroblasts, mesoangioblasts, smooth muscle cells, and colon cancer cells (Venereau et al., 2012). To determine whether SA alters HMGB 1's chemo-attractant activity, a chemotaxis assay was performed with mouse 3T3 fibroblasts.

[2] = molecular target: T3, mutant (R24A/K28A) HMGB1^RE (Homo sapiens, UniProt P09429, K28A/R24A); assay: Chemotaxis assay with mutant R24A/K28A HMGB1^RE; assay type: cell-based; conditions: NIH/3T3 fibroblasts
T3 construct: (i) full length: residues 2-215; made in house
T3 sequence (P09429 2-215 R24A/K28A): T1 sequence (P09429 2-215 limits assumed) with R23A, K27A
Method: as §2
An alternative explanation is that SA, at low concentrations, affects another factor in vivo, which results indirectly in suppression of HMGB1^RE-induced chemotaxis. […] Therefore, these residues were mutated to Ala to form the double mutant Arg24Ala/Lys28Ala (R24A/K28A).

full-length HMGB1 = molecular target: T4, full-length HMGB1 (Homo sapiens, UniProt P09429); assay: Saturation transfer difference (STD) NMR; assay type: binding
T4 construct: (i) full length: residues 2-215; hexaHis (TEV-cleavable) (N, cleaved yes); made in house
T4 sequence (P09429 2-215): T1 sequence (P09429 2-215 limits assumed)
Excerpt: as §1

AtHMGB3 = molecular target: T5, AtHMGB3 (Arabidopsis thaliana, UniProt P93047); assay: Callose staining: AtHMGB3-induced callose deposition in Arabidopsis leaves; assay type: in vivo; parameters: providing a full length Arabidopsis thaliana HMGB1 or HMGB3 (AtHMGB1 or AtHMGB3) protein; 6x His; made in house; host or cells: Escherichia coli BL21; conditions: 100 nM AtHMGB3, 15 h
T5 sequence (P93047 1-141): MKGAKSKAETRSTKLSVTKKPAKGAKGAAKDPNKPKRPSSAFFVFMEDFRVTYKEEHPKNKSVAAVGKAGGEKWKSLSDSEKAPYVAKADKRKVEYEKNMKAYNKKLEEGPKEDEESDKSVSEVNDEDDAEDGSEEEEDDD
Method: Arabidopsis leaves were collected 15 h after infiltration with 100 nM AtHMGB3 or 100 nM Pep1, and then immediately immersed in alcoholic lactophenol (phenol:glycerol:lactic acid:water:ethanol=1:1:1:1:8) to destain the chlorophyll. To remove the background fluorescence, destained leaves were treated with toluidine blue O solution (0.05% toluidine blue O, 0.1 M sodium acetate, pH 4.4) for 30 min, and then rinsed twice with 150 mM K2HPO4 (pH 9.5). Callose was stained with aniline blue solution (0.02% aniline blue, 150 mM K2HPO4, pH 9.5) for 30 min in the absence of light. The aniline blue-stained leaves were mounted with 25% glycerol and analyzed using a Leica DM5500 epifluorescence microscope. The number of callose loci was quantified using an ImageJ (NIH).

T2 sequence (P48061 22-89 limits assumed, species assumed): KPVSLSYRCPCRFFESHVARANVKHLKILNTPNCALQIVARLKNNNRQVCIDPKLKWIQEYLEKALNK

O=C(O)c1ccccc1O [SA, salicylic acid]
WaterLOGSY binding to complex formed between CXCL12 and HMGB1 (HMGB1-CXCL12 Complex): binds | WaterLOGSY binding to CXCL12 (CXCL12): binds | effect on fibroblast migration induced by fMLP [1]: did not affect | inhibition of R24A/K28A HMGB1^RE's chemo-attractant activity [2]: not inhibited | STD signal for binding to full-length HMGB1 (full-length HMGB1; 20 μM HMGB1, pH 7.4, SA 6 mM, ac3AESA 0.6-5.8 mM): no STD signal is detected | ligand concentration at which an STD effect for HMGB1 binding is seen (full-length HMGB1; 20 μM HMGB1, SA tested as high as 6 mM): no STD effect | effect on AtHMGB3-induced callose deposition (AtHMGB3): completely suppressed
